pIC50: −log10 of the molar value.

The term pIC50 denotes the negative decadic logarithm of the IC50, by convention in mol/L. High values mean a small IC50, low ones a large IC50.

The data set concerns the target Voltage-gated inwardly rectifying potassium channel KCNH2 (Homo sapiens, UniProt Q12809). Briefly: hERG Inhibition Assay: Compounds were solubilised to 100 mM in DMSO before dilution in HBPS to 300 μM. 6-Point concentration-response curves were generated using 3.16-fold serial dilutions from the top test concentration. Procedure: Electrophysiological recordings were made from a Chinese Hamster Ovary cell line stably expressing the full-length hERG potassium channel. Single cell ionic currents were measured in whole-cell patch clamp configuration at room temperature (21-23° C.) using the QPatch HTX platform (Sophion). Intracellular solution contained (mM): 120 KF, 20 KCl, 10 EGTA, 10 HEPES and was buffered to pH 7.3. The extracellular solution (HEPES-buffered physiological saline, HBPS) contained (mM): 145 NaCl, 4 KCl, 2 CaCl2, 1 MgCl2, 10 HEPES, 10 glucose, buffered to pH7.4. Cells were clamped at a holding potential of −80 mV. Cells were stepped to +20 mV for 2 s then −40 mV for 3s before returning to the holding potential. This sweep was repeated 10 times at 10 s intervals. hERG currents were measured from the tail step and referenced to the holding current. (In general: hERG is a cardiac potassium channel; its block is linked to QT prolongation.)

Chain of Voltage-gated inwardly rectifying potassium channel KCNH2 (Q12809 whole entry): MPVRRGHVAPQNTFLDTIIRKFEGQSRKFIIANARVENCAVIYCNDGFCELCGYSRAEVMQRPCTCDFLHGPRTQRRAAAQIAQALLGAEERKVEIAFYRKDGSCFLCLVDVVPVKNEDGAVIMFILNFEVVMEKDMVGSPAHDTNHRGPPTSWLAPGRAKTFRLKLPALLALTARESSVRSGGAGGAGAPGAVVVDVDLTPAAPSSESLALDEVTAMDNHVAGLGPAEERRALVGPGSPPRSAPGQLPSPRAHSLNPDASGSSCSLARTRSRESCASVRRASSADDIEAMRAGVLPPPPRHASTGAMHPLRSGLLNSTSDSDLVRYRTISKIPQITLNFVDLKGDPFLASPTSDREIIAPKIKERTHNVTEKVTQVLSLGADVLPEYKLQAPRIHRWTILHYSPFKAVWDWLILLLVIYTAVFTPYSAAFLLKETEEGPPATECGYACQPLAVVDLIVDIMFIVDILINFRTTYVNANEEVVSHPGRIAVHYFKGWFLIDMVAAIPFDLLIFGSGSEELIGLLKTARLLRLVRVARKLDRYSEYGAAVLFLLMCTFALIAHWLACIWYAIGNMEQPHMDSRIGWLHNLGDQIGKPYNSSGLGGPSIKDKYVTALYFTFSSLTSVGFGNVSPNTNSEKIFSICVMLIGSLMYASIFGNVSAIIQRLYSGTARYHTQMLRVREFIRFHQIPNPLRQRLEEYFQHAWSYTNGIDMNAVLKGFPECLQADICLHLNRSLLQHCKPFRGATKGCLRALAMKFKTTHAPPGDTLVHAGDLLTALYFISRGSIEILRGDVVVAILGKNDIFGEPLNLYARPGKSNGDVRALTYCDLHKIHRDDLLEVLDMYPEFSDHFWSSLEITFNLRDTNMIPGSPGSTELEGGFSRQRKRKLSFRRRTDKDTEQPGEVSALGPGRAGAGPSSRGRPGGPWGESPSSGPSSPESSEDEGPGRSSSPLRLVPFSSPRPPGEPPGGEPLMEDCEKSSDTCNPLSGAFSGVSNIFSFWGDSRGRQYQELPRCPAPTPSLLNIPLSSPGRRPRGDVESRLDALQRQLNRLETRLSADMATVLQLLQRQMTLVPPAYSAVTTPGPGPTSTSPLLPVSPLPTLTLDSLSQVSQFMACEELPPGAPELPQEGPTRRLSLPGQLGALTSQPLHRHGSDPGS

As for `Cn1c(=O)cnc2cc(F)c(OCCNC[C@H]3CN(c4cnc5c(n4)NC(=O)CO5)C(=O)O3)nc21`, the pIC50 was 4.01.

These data come from ChEMBL document CHEMBL5729608, “Oxazolidinone antibiotic compounds and process of preparation” (2023).
